Data taken from paper PMC4114559, “Pigment Dispersing Factor Regulates Ecdysone Biosynthesis via Bombyx Neuropeptide G Protein Coupled Receptor-B2 in the Prothoracic Glands of Bombyx mori” (PLoS ONE, 2014).
“Also recorded” adds a separate entry of the source. Numbered stars: 1 amine (or outer) side, 2 acyl side, 3 side chain; on linkers, the order of the positions; unused ones are H or OH. Bridge positions count the residues as written; N and C are the ends. Square brackets hold non-standard residues; d marks the D form. Ends that are not written are not given here. Peptide text beside a SMILES is read from it. I, II: the chains in the order shown. Actinocin(9to1) = Cc1c2oc3c(C)ccc(C(=O)[*:1])c3nc-2c(C(=O)[*:2])c(N)c1=O; NMeV = CN[C@H](C(=O)O)C(C)C; Sar = CNCC(=O)O

How the values were obtained:
[1] = system: PGs; settings: cited from earlier work
Excerpt: In many cases, a single hormone has multiple functions regulating many physiological phenomena. Thus, both the regulation of receptor expression in the target tissue and the regulation of hormone release are important for the hormone to only affect the target tissue at the appropriate time. In the case of PTTH, the titer of the hormone in the hemolymph is clearly correlated with the ecdysteroid titer ... || In insects, neuropeptide hormones affect the target tissue via humoral and neuronal pathways. […] The increase in intracellular cAMP is thought to be regulated by Ca^2+ signaling in the PTTH signaling pathway, [37]. […] PDF sig ... || (+ 1 further places)

[2] = system: PGs of B. mori; assay: Effect of inhibitors on induced ecdysone biosynthesis in cultured PGs; assay type: cell-based, Bombyx mori; settings: 15 min pre-treatment, 3 hours; for effect of inhibitor on PDF-induced ecdysone biosynthesis: n = 10
Protocol: (§1) Dissected PGs were rinsed with Grace's insect culture medium (Gibco) and pre-cultured individually in 100 µl medium in 96-well plates (BD Falcon) at 25°C for 30 min. To evaluate the effect of extracellular Ca^2+ on ecdysone biosynthesis, lepidopteran saline and lepidopteran saline using NaCl as a replacement for CaCl2 were used. For the pharmacological analysis, the PG was pre-treated with the inhibitor for 15 min during the pre-culture period. Following this treatment, the PG was cultured in the desired conditions for the desired period (Ecdysone assay: 3 hours; cAMP assay: 30 min; and Protein phosphorylation assay: 15 min). Actinomycin D, H-89 and cycloheximide (CHX) were purchased from Sigma; Rapamycin was purchased from Santa Cruz Biotechnology; and LY294002 was purchased from Merck. H-89 was dissolved in water. The other inhibitors were dissolved in DMSO. A 1% volume of the appropriate inhibitor was added to the culture medium.
Prior to ecdysteroids extraction, the 100 µl of cultured medium was diluted with equal volume of MilliQ water. After that, 400 µl of 1-butanol was added to the sample, vortexed for 3 min and centrifuged at 1,000×g for 10 min at 4°C. The 1-butanol phase was transferred to a new tube, and the solvent was evaporated using a centrifugal concentrator. The dried samples were re-dissolved in 50 µl of pure methanol for the following analysis. Quantification of ecdysteroids using LC-MS/MS was performed as previously described with some modifications. Ecdysteroids were separated by reverse-phase HPLC using a PEGASIL C8 column (3 µm, 2×100 mm, Senshu-pak, Senshu-kagaku) with gradient elution of acetonitrile (ACN)/water at a flow rate of 0.2 mL min^−1 (0–3 min (ACN = 10–75%), 3–20 min (75–85%), 20–25 min (100%)), on a Prominence UFLC system (Shimadzu). The separated ecdysteroids were quantified with the QTRAP5500 MS/MS system (AB SCIEX) using MRM mode. For the quantitative analysis, standard curves were generated with concentrations of 0.98–1000 ng/ml.
Because PDF stimulated the increase in intracellular cAMP levels in the PGs, the activation of PKA is likely involved in the PDF signaling pathway. One of the pathways downstream of active PKA is cAMP response element-binding protein (CREB)-mediated transcriptional regulation. First, we evaluated the effect of PDF on the transcript level of known ecdysone biosynthetic enzymes (Nvd, Nm-g, Spo, Phm, Dib and Sad) using Q-PCR. […] Therefore, de novo transcription was not required for PDF-mediated ecdysone biosynthesis for at least 3 hours. […]
(§2) Figure 4 Signaling pathways involved in PDF-induced ecdysone biosynthesis. […] The transcript levels of nvd, nm-g, spo, phm, dib and sad were quantified with Q-PCR. […] Statistically significant differences were evaluated by Student's t-test (***P<0.001, **P<0.01). […]

[3] = system: 4E-BP; assay: p-4E-BP level in cultured PGs (Western blot); assay type: cell-based, Bombyx mori; settings: PI3K inhibitor LY294002 50 µM; immunoblotting
Protocol: as §1, with “Actinomycin D, H-89 and cycloheximide (CHX) were purchased from Sigma; Rapamycin was purchased from Santa Cruz Biotechnology; and LY294002 was purchased from Merck. H-89 was dissolved in water. The other inhibitors were dissolved in DMSO. A 1% volume of the appropriate inhibitor was added to the culture medium.” left out
Dissected PGs were pre-cultured in Grace's culture medium for 30 min, then cultured with or without PDF or PTTH for 15 min. The cultured PGs were sonicated in 50 mM Tris-HCl (pH 6.8) with protease inhibitor cocktail (Complete, Roche) and phosphatase inhibitor cocktail (Wako), lysed in 1x SDS sample buffer excluding 2-mercaptoethanol (2ME) and bromophenol blue (BPB), and the protein concentration was measured using the BCA protein assay kit (Pierce). […]
as §2

Question: For `CCCC(=O)Nc1ncnc2c1ncn2[C@@H]1O[C@@H]2COP(=O)(O)O[C@H]2[C@H]1OC(=O)CCC` [dbcAMP, dibutyryl cyclic AMP, reference compound], which “ecdysone biosynthesis in vitro (literature)” value ([1]; cell-permeable cAMP analog, in vitro, ref [27], [37]) is on record?
Answer: The value was “can induce ecdysone biosynthesis in vitro”.

Question: What about the “effect of a transcription inhibitor on PTTH- and dbcAMP-induced ecdysone biosynthesis (literature)” value ([1]; ref [39]) of the same compound?
Answer: Its value is “ecdysone biosynthesis was suppressed by a transcription inhibitor”.

Question: Which “effect of inhibitor on PDF-induced ecdysone biosynthesis” value ([2]; transcription inhibitor ActD 10 µM) does the source give for `Cc1c2oc3c(C)ccc(C(=O)N[C@@H]4C(=O)N[C@H](C(C)C)C(=O)N5CCC[C@H]5C(=O)N(C)CC(=O)N(C)[C@@H](C(C)C)C(=O)O[C@@H]4C)c3nc-2c(C(=O)N[C@@H]2C(=O)N[C@H](C(C)C)C(=O)N3CCC[C@H]3C(=O)N(C)CC(=O)N(C)[C@@H](C(C)C)C(=O)O[C@@H]2C)c(N)c1=O` [actinomycin D] (I: T[dV]P[Sar][NMeV] / II: T[dV]P[Sar][NMeV]; ester I:1-I:C, II:1-II:C; linker I:N-II:N via Actinocin(9to1)) here?
Answer: Its value is “did not suppress PDF-induced ecdysone biosynthesis”.

Question: Which results are given for `O=c1cc(N2CCOCC2)oc2c(-c3ccccc3)cccc12` [LY294002, reference compound]?
Answer: effect of inhibitor on ecdysone biosynthesis induced by PDF and PTTH ([2]; PI3K inhibitor LY294002 50 µM, n = 3 and 4): clearly suppressed the ecdysone biosynthesis; effect of inhibitor on phosphorylation of 4E-BP induced by PDF and PTTH [3]: clearly suppressed the ecdysone biosynthesis and phosphorylation of 4E-BP induced by PDF and PTTH

Question: Which “effect of inhibitor on PDF-induced ecdysone biosynthesis” value ([2]; translation inhibitor CHX 0.2 mM) does the source give for `C[C@@H]1C[C@@H]([C@H](O)CC2CC(=O)NC(=O)C2)C(=O)[C@@H](C)C1` [CHX, cycloheximide] here?
Answer: Its value is “clearly inhibited ecdysone biosynthesis”.

Question: For `O=S(=O)(NCCNC/C=C/c1ccc(Br)cc1)c1cccc2cnccc12` [H-89], which “effect of inhibitor on PDF-induced ecdysone biosynthesis” value ([2]; PKA inhibitor H-89 0.1 mM) is on record?
Answer: The value was “clearly inhibited ecdysone biosynthesis; also recorded: inhibited PDF-induced ecdysone biosynthesis”.

Question: For “diapause hormone: neuronal pathway-mediated tropic hormone (TDMKDESDRGAHSERGALWFGPRL; ends and bridges not checked; UniProt P09971 24-47, looked up) [reference compound]”, which EC50 ([1]; neuronal pathway-mediated tropic hormone, ref [32], read-out: EC50 of tropic hormone (literature)) is on record?
Answer: Its EC50 is 270 nM.
